For twelve compounds, IC50 results are on record in patent publication US20230167105A1, “BCL-2 PROTEIN INHIBITORS” (Recurium IP Holdings, LLC, priority 2020, published 2023).

This assay deals with MOLT-4 cells. Put plainly: MOLT-4 Cell Proliferation Assay (CellTiter-Glo). The format is cell-based. As to conditions: Homo sapiens, 72 h, read-out: MOLT-4 CTG IC50. The procedure: Cell proliferation was measured using the CellTiter-Glo® Luminescent Cell Viability Assay. The assay involved the addition of a single reagent (CellTiter-Glo® Reagent) directly to cells cultured in serum-supplemented medium. MOLT-4 cells (ATCC, CRL-1582) were cultured according to ATCC recommendations and were seeded at 50,000 cells per well.
Each compound evaluated was prepared as a DMSO stock solution (10 mM). Compounds were tested in duplicate on each plate, with a 10-point serial dilution curve (1:3 dilution). The highest compound concentration was 10 μM (final), with a 0.1% final DMSO concentration. Plates were then incubated at 37° C., 5% CO2 for 72 h, cell plates were equilibrated at rt for approximately 30 mins. An equi-volume amount of CellTiter-Glo® Reagent (100 μL) was added to each well. Plates were mixed for 2 mins on an orbital shaker to induce cell lysis and then incubated at rt for 10 mins to stabilize the luminescent signal. Luminescence was recorded using a Envision plate reader according to CellTiter-Glo protocol. IC50 of each compound was calculated using GraphPad Prism by nonlinear regression analysis.

`CCC12CC(C3=C(CN4CCN(c5ccc(C(=O)NS(=O)(=O)c6ccc(N[C@H](CCN7CCN(CCCCCNc8cccc9c8C(=O)N(C8CCC(=O)NC8=O)C9=O)CC7)CSc7ccccc7)c(S(=O)(=O)C(F)(F)F)c6)cc5)CC4)CCC(C)(C)C3)(C1)C2` (stereo partly drawn) [Example 10, N-((4-(((2R)-4-(4-(5-((2-(2,6-dioxopiperidin-3-yl)-1,3-dioxoisoindolin-4-yl)amino)pentyl)piperazin-1-yl)-1-(phenylthio)butan-2-yl)amino)-3-((trifluoromethyl)sulfonyl)phenyl)sulfonyl)-4-(4-((2-(3-ethylbicyclo[1.1.1]pentan-1-yl)-4,4-dimethylcyclohex-1-en-1-yl)methyl)piperazin-1-yl)benzamide]: the IC50 (as a rule, the concentration at which inhibition is half-maximal) fell in the range of 50 to 150 nM.

Consider `CC1(C)CCC(CN2CCN(c3ccc(C(=O)NS(=O)(=O)c4ccc(N[C@H](CCN5CCN(CCCCCNc6cccc7c6C(=O)N(C6CCC(=O)NC6=O)C7=O)CC5)CSc5ccccc5)c(S(=O)(=O)C(F)(F)F)c4)cc3)CC2)=C(C23CC(C(F)F)(C2)C3)C1` (stereo partly drawn) [Example 2, 4-(4-((2-(3-(difluoromethyl)bicyclo[1.1.1]pentan-1-yl)-4,4-dimethylcyclohex-1-en-1-yl)methyl)piperazin-1-yl)-N-((4-(((2R)-4-(4-(5-((2-(2,6-dioxopiperidin-3-yl)-1,3-dioxoisoindolin-4-yl)amino)pentyl)piperazin-1-yl)-1-(phenylthio)butan-2-yl)amino) ((trifluoromethyl)sulfonyl)phenyl)sulfonyl)benzamide], for which the IC50 is no more than 50 nM.

As for `CC1(C)CCC(CN2CCN(c3ccc(C(=O)NS(=O)(=O)c4ccc(N[C@H](CCN5CCN(CCCCCNc6cccc7c6CN(C6CCC(=O)NC6=O)C7=O)CC5)CSc5ccccc5)c(S(=O)(=O)C(F)(F)F)c4)cc3)CC2)=C(C23CC(C(F)F)(C2)C3)C1` (stereo partly drawn) [Example 15, 4-[4-[[2-[3-(difluoromethyl)-1-bicyclo[1.1.1]pentanyl]-4,4-dimethyl-cyclohexen-1-yl]methyl]piperazin-1-yl]-N-[4-[[(1R)-3-[4-[5-[[2-(2,6-dioxo-3-piperidyl)-1-oxo-isoindolin-4-yl]amino]pentyl]piperazin-1-yl]-1-(phenylsulfanylmethyl)propyl]amino]-3-(trifluoromethylsulfonyl)phenyl]sulfonyl-benzamide], the IC50 lay within 50 to 150 nM.

Consider `CC1(C)CCC(CN2CCN(c3ccc(C(=O)NS(=O)(=O)c4ccc(N[C@H](CCN5CCN(CCCNc6ccc7c(c6)C(=O)N(C6CCC(=O)NC6=O)C7=O)CC5)CSc5ccccc5)c(S(=O)(=O)C(F)(F)F)c4)cc3)CC2)=C(C23CC(C(F)F)(C2)C3)C1` (stereo partly drawn) [Example 12, 4-[4-[[2-[3-(difluoromethyl)-1-bicyclo[1.1.1]pentanyl]-4,4-dimethyl-cyclohexen-1-yl]methyl]piperazin-1-yl]-N-[4-[[(1R)-3-[4-[3-[[2-(2,6-dioxo-3-piperidyl)-1,3-dioxo-isoindolin-5-yl]amino]propyl]piperazin-1-yl]-1-(phenylsulfanylmethyl)propyl]amino]-3-(trifluoromethylsulfonyl)phenyl]sulfonyl-benzamide], for which the IC50 was no more than 50 nM.

As to `CN(CCCNc1cccc2c1C(=O)N(C1CCC(=O)NC1=O)C2=O)CC[C@H](CSc1ccccc1)Nc1ccc(S(=O)(=O)NC(=O)c2ccc(N3CCN(CC4=C(C56CC(C(F)F)(C5)C6)CC(C)(C)CC4)CC3)cc2)cc1S(=O)(=O)C(F)(F)F` (stereo partly drawn) [Example 19, 4-(4-((2-(3-(difluoromethyl)bicyclo[1.1.1]pentan-1-yl)-4,4-dimethylcyclohex-1-en-1-yl)methyl)piperazin-1-yl)-N-((4-(((2R)-4-((3-((2-(2,6-dioxopiperidin-3-yl)-1,3-dioxoisoindolin-4-yl)amino)propyl)(methyl)amino)-1-(phenylthio)butan-2-yl)amino)-3-((trifluoromethyl)sulfonyl)phenyl)sulfonyl)benzamide], the 50% inhibitory concentration (IC50) was in the range of 50 to 150 nM.

As for `Cc1ncsc1-c1ccc([C@H](CC(=O)NCCCCCCN2CCN(CC[C@H](CSc3ccccc3)Nc3ccc(S(=O)(=O)NC(=O)c4ccc(N5CCN(CC6=C(C78CC(C(F)F)(C7)C8)CC(C)(C)CC6)CC5)cc4)cc3S(=O)(=O)C(F)(F)F)CC2)NC(=O)[C@@H]2C[C@@H](O)CN2C(=O)[C@@H](NC(=O)C2(F)CC2)C(C)(C)C)cc1` [Example 48], the IC50 is no less than 150 nM.

For `CC1(C)CCC(CN2CCN(c3ccc(C(=O)NS(=O)(=O)c4ccc(N[C@H](CCN5CCN(CCCCNc6cccc7c6C(=O)N(C6CCC(=O)NC6=O)C7=O)CC5)CSc5ccccc5)c(S(=O)(=O)C(F)(F)F)c4)cc3)CC2)=C(C23CC(C(F)F)(C2)C3)C1` (stereo partly drawn) [Example 8, 4-[4-[[2-[3-(difluoromethyl)-1-bicyclo[1.1.1]pentanyl]-4,4-dimethyl-cyclohexen-1-yl]methyl]piperazin-1-yl]-N-[4-[[(1R)-3-[4-[4-[[2-(2,6-dioxo-3-piperidyl)-1,3-dioxo-isoindolin-4-yl]amino]butyl]piperazin-1-yl]-1-(phenylsulfanylmethyl)propyl]amino]-3-(trifluoromethylsulfonyl)phenyl]sulfonyl-benzamide], the IC50 was no more than 50 nM.

As to `CC1(C)CCC(CN2CCN(c3ccc(C(=O)NS(=O)(=O)c4ccc(N[C@H](CCN5CCN(CCCCCCNc6cccc7c6C(=O)N(C6CCC(=O)NC6=O)C7=O)CC5)CSc5ccccc5)c(S(=O)(=O)C(F)(F)F)c4)cc3)CC2)=C(C23CC(C(F)F)(C2)C3)C1` (stereo partly drawn) [Example 11, 4-[4-[[2-[3-(difluoromethyl)-1-bicyclo[1.1.1]pentanyl]-4,4-dimethyl-cyclohexen-1-yl]methyl]piperazin-1-yl]-N-[4-[[(1R)-3-[4-[6-[[2-(2,6-dioxo-3-piperidyl)-1,3-dioxo-isoindolin-4-yl]amino]hexyl]piperazin-1-yl]-1-(phenylsulfanylmethyl)propyl]amino]-3-(trifluoromethylsulfonyl)phenyl]sulfonyl-benzamide], the IC50 is no less than 150 nM.

Regarding `Cc1cc([C@H](C(=O)N2C[C@H](O)C[C@H]2C(=O)N[C@@H](CC(=O)NCCCCCC(=O)N2CCN(CC[C@H](CSc3ccccc3)Nc3ccc(S(=O)(=O)NC(=O)c4ccc(N5CCN(CC6=C(C78CC(C(F)F)(C7)C8)CC(C)(C)CC6)CC5)cc4)cc3S(=O)(=O)C(F)(F)F)CC2)c2ccc(-c3scnc3C)cc2)C(C)C)on1` [Example 50, (2S,4R)—N—((S)-3-((6-(4-((R)-3-((4-(N-(4-(4-((2-(3-(difluoromethyl)bicyclo[1.1.1]pentan-1-yl)-4,4-dimethylcyclohex-1-en-1-yl)methyl)piperazin-1-yl)benzoyl)sulfamoyl)-2-((trifluoromethyl)sulfonyl)phenyl)amino)-4-(phenylthio)butyl)piperazin-1-yl)-6-oxohexyl)amino)-1-(4-(4-methylthiazol-5-yl)phenyl)-3-oxopropyl)-4-hydroxy-1-((R)-3-methyl-2-(3-methylisoxazol-5-yl)butanoyl)pyrrolidine-2-carboxamide], the IC50 was no less than 150 nM.

Turning to `CC1(C)CCC(CN2CCN(c3ccc(C(=O)NS(=O)(=O)c4ccc(N[C@H](CCN5CCN(CCCCc6ccc7c(c6)CN(C6CCC(=O)NC6=O)C7=O)CC5)CSc5ccccc5)c(S(=O)(=O)C(F)(F)F)c4)cc3)CC2)=C(C23CC(C(F)F)(C2)C3)C1` (stereo partly drawn) [Example 18, 4-(4-((2-(3-(difluoromethyl)bicyclo [1.1.1]pentan-1-yl)-4,4-dimethylcyclohex-1-en-1-yl)methyl)piperazin-1-yl)-N-((4-(((2R)-4-(4-(4-(2-(2,6-dioxopiperidin-3-yl)-1-oxoisoindolin-5-yl)butyl)piperazin-1-yl)-1-(phenylthio)butan-2-yl)amino)-3-((trifluoromethyl)sulfonyl)phenyl)sulfonyl)benzamide], the IC50 is no more than 50 nM.

`Cc1cc([C@@H](C(=O)N2C[C@H](O)C[C@H]2C(=O)N[C@@H](CC(=O)NCCCCCC(=O)N2CCN(CC[C@H](CSc3ccccc3)Nc3ccc(S(=O)(=O)NC(=O)c4ccc(N5CCN(CC6=C(C78CC(C(F)F)(C7)C8)CC(C)(C)CC6)CC5)cc4)cc3S(=O)(=O)C(F)(F)F)CC2)c2ccc(-c3scnc3C)cc2)C(C)C)on1` [Example 56, (2S,4R)—N—((S)-3-((6-(4-((R)-3-((4-(N-(4-(4-((2-(3-(difluoromethyl)bicyclo[1.1.1]pentan-1-yl)-4,4-dimethylcyclohex-1-en-1-yl)methyl)piperazin-1-yl)benzoyl)sulfamoyl)-2-((trifluoromethyl)sulfonyl)phenyl)amino)-4-(phenylthio)butyl)piperazin-1-yl)-6-oxohexyl)amino)-1-(4-(4-methylthiazol-5-yl)phenyl)-3-oxopropyl)-4-hydroxy-1-((S)-3-methyl-2-(3-methylisoxazol-5-yl)butanoyl)pyrrolidine-2-carboxamide]: the IC50 was no less than 150 nM.

Take `Cc1ncsc1-c1ccc(CNC(=O)[C@@H]2C[C@@H](O)CN2C(=O)[C@@H](NC(=O)CCCCCC(=O)N2CCN(CC[C@H](CSc3ccccc3)Nc3ccc(S(=O)(=O)NC(=O)c4ccc(N5CCN(CC6=C(C78CC(C(F)F)(C7)C8)CC(C)(C)CC6)CC5)cc4)cc3S(=O)(=O)C(F)(F)F)CC2)C(C)(C)C)cc1` [Example 45, (2S,4R)-1-((S)-2-(7-(4-((R)-3-((4-(N-(4-(4-((2-(3-(difluoromethyl)bicyclo[1.1.1]pentan-1-yl)-4,4-dimethylcyclohex-1-en-1-yl)methyl)piperazin-1-yl)benzoyl)sulfamoyl)-2-((trifluoromethyl)sulfonyl)phenyl)amino)-4-(phenylthio)butyl)piperazin-1-yl)-7-oxoheptanamido)-3,3-dimethylbutanoyl)-4-hydroxy-N-(4-(4-methylthiazol-5-yl)benzyl)pyrrolidine-2-carboxamide]: the IC50 is no less than 150 nM.
